What was measured:
SARS-CoV-2 (KCDC03) = assay: In vitro antiviral activity against SARS-CoV-2 in Vero E6 cells (CCIF viral yield, RT-qPCR); format: cell-based; conditions: for SI (CC50/IC50) / IC50: SARS-CoV-2 (KCDC03); for IC50: Vero E6 cells; for virus replication (genome copy number, infectious progeny): SARS-CoV-2-infected Vero E6, 20 µM at 18 hpi
[1] = test system: proinflammatory cytokines; assay: Proinflammatory cytokines in SARS-CoV-2-infected Vero E6 cells (RT-qPCR, ELISA); format: cell-based, African green monkey; conditions: 20 μM
[2] = test system: proinflammatory cytokines; assay: Proinflammatory cytokines in IAV-infected A549 cells (RT-qPCR, ELISA); format: cell-based, human; conditions: 20 μM
lipid droplets (LDs) = assay: BODIPY lipid droplet immunofluorescence in IAV-infected A549 cells; format: cell-based, human; conditions: MOI = 1 FFU
Protocol: To characterize the dynamics of LD formation, apoptotic and necroptotic cells, and virus infectivity, an IFA was performed with the […], MDCK, Caco-2, Vero E6, MA104, MARC-145, LLC-PK, and HRT-18G cells, infected with or without each virus, and treated with vehicles or chemicals at the different time points (Table S3), or transfected with siRNA or scrambled siRNA as described above.^ 16^,27^,28 Briefly, cells were prepared in 8-well chamber slides infected with IAV, SARS-CoV-2, BCoV, PEDV, RVA, PRRSV, or PSaV at an MOI of 1 (IAV), or MOI of 0.1 (SARS-CoV-2, BCoV, PEDV, RVA, PRRSV, or PSaV) and treated with or without chemicals. […] Subsequently, cells were washed thrice with PBS (pH 7.4) and mounted with SlowFade Gold antifade reagent containing 1 × DAPI solution (Molecular Probes) for nucleus staining, observed with a LSM 800 confocal microscope, and analysed using Zen Blue Software 2.6 (Carl Zeiss; Jena, Germany).
The number and size of intracellular LDs were measured as described previously.^28 Briefly, four images were taken of each sample and converted into a pixel unit, and the data were processed and quantified using Adobe Photoshop CS6. […] The results were expressed as relative values, where the average number and size of pixels of positive color in virus-infected groups were normalized to those of the mock-treated, mock-infected control.

[3] = test system: LD lipolysis (FFA and glycerol release); assay: Intracellular FFA and glycerol quantification in SARS-CoV-2-infected Vero E6 cells; format: cell-based, African green monkey; conditions: SARS-CoV-2-infected cells; 20 µM at 18 hpi; vs vehicle-treated control
Protocol: Cells were grown in 6- or 12-well plates or 8-well chamber slides to the desired confluency and then washed twice with phosphate-buffered saline (PBS, pH 7.4). They were then mock-inoculated with medium only or virus-inoculated with various multiplicities of infection (MOI): MOI of 0.01 or 1 FFU/cell for IAV, and MOI of 0.01 or 0.1 FFU/cell for SARS-CoV-2, BCoV, PEDV, PRRSV, and PSaV. Thereafter, each inoculum was absorbed for 1 h, and the cells were washed twice with PBS (pH 7.4). As shown in Supplementary Table 4, further treatments and incubations varied dependent on the virus species used. […]
To determine intracellular levels of free fatty acids, the different cultured cells infected with or without the seven target RNA viruses, or treated with or without different concentrations of chemicals, and the lung samples from experimental mice and hamsters were prepared as described above. The amount of intracellular free fatty acid was determined using a quantification kit from BioVision according to the manufacturer’s recommendations.^31 Briefly, 5x10^6 cells or 100 mg of lung tissue were mixed with 500 μL of chloroform-Triton X-100 (1% Triton X-100 in pure chloroform) with vortexing at five-minute intervals for 20 min at 20°C. […]

| SMILES | SI (CC50/IC50) (SARS-CoV-2 (KCDC03)) | IC50 (SARS-CoV-2 (KCDC03)) | virus replication (genome copy number, infectious progeny) (SARS-CoV-2 (KCDC03)) | levels of TNF-α, IL-6, and MCP-1 [1] | proinflammatory cytokines IFN-α, IFN-β, TNF-α, IL-6, MCP-1 [2] | intracellular LDs (BODIPY) (lipid droplets (LDs)) | levels of intracellular FFAs and glycerol [3] |
| --- | --- | --- | --- | --- | --- | --- | --- |
| CN(C)C(=O)Nc1cccc(-c2ccc(N(C)C)cc2)c1 [Atglistatin] | 154 | 1470 ± 120 nM | inhibiting the replication | markedly reduced | significantly reduced | Retention of LDs | significantly reduced |
| COc1nn(-c2ccc(NC(=O)OCc3ccccc3)c(C)c2)c(=O)o1 [CAY10499] | 62 | 1540 ± 180 nM | inhibiting the replication | markedly reduced | significantly reduced | Retention of LDs | significantly reduced |

— article PMC9575645 (Signal Transduction and Targeted Therapy, 2022)
